Among the data in ChEMBL document CHEMBL3244163, “Antifungal agents. 5. Chemical modification of antibiotics from Polyangium cellulosum var. fulvum. Alcohol, ketone, aldehyde, and oxime analogues of ambruticin” (1979) are Activity and MIC values, retold here.

In one assay the test system is Candida albicans. Description: Antifungal activity against Candida albicans by standard broth dilution technique. Format: functional, organism-based. (In general: In broth dilution the organism is exposed to a series of concentrations in liquid medium.)
The next assay has as its system Streptococcus pyogenes. Briefly: Antibacterial activity against Streptococcus pyogenes by standard broth dilution technique. Format: functional, organism-based.
The nature of assay [1]: Antifungal activity against Microsporum fulvum assessed as growth inhibition after 3 days by standard broth dilution technique. The note with it: Arthroderma fulvum. Format: functional.
In the next assay the test system is Histoplasma capsulatum. Description: Antifungal activity against Histoplasma capsulatum assessed as growth inhibition after 3 days by standard broth dilution technique. Format: functional. The note with it: 72 h.

One may read the MIC as the lowest concentration that inhibits growth of the organism.

Converted amounts (≈) assume the structure as drawn. The source made the active and inactive calls. The rule behind the calls is not given here. A value given as a limit tells only on which side of the number the result lay.

For `CC[C@H]1O[C@@H](/C(C)=C/[C@H](C)/C=C/[C@H]2[C@@H](C)[C@@H]2/C=C/[C@@H]2O[C@H](CC(O)c3ccccc3)C[C@H](O)[C@H]2O)CC=C1C` (stereo partly specified), the result in the assay with Candida albicans and with Streptococcus pyogenes was inactive. Also, the minimum inhibitory concentration (MIC) (in assay [1]; in the assay with Histoplasma capsulatum) was 1.56 µg/mL (≈ 2.91 µM) throughout.

Take `CC[C@H]1O[C@@H](/C(C)=C/[C@H](C)/C=C/[C@H]2[C@@H](C)[C@@H]2/C=C/[C@@H]2O[C@H](CC(=O)O)C[C@@H](O)[C@H]2O)CC=C1C`: the outcome with Candida albicans and with Streptococcus pyogenes was inactive. Also, the figures for the MIC (in assay [1]; with Histoplasma capsulatum) were 0.195 µg/mL (≈ 0.411 µM) and 0.78 µg/mL (≈ 1.64 µM), respectively.

In the case of `CC[C@H]1O[C@@H](/C(C)=C/[C@H](C)/C=C/[C@H]2[C@@H](C)[C@@H]2/C=C/[C@@H]2O[C@H](CC(=O)C(C)(C)C)C[C@H](O)[C@H]2O)CC=C1C`, the outcome in the assay with Candida albicans and in the assay with Streptococcus pyogenes was inactive. Also, the MIC in assay [1] was greater than 50 µg/mL; in the assay on Histoplasma capsulatum, 12.5 µg/mL (≈ 24.3 µM).

In the case of `CC[C@H]1O[C@@H](/C(C)=C/[C@H](C)/C=C/[C@H]2[C@@H](C)[C@@H]2/C=C/[C@@H]2O[C@H](CCO)C[C@@](O)(c3ccccc3)[C@H]2O)CC=C1C`, the result with Candida albicans and in the assay with Streptococcus pyogenes was inactive. Also, the MIC in assay [1] came to 6.25 µg/mL (≈ 11.6 µM); in the assay on Histoplasma capsulatum, 3.12 µg/mL (≈ 5.81 µM).

Turning to `CC[C@H]1O[C@@H](/C(C)=C/[C@H](C)/C=C/[C@H]2[C@@H](C)[C@@H]2/C=C/[C@@H]2O[C@H](CCO)C[C@@](O)(CC)[C@H]2O)CC=C1C`, the outcome in the assay on Candida albicans and in the assay on Streptococcus pyogenes was inactive. The minimum inhibitory concentration (MIC) (in assay [1]; in the assay with Histoplasma capsulatum) was 1.56 µg/mL (≈ 3.19 µM) in each case.

For `CC[C@H]1O[C@@H](/C(C)=C/[C@H](C)/C=C/[C@H]2[C@@H](C)[C@@H]2/C=C/[C@@H]2O[C@H](CC(=O)OC)CC(=O)[C@H]2O)CC=C1C`, the result in the assay on Candida albicans and with Streptococcus pyogenes was inactive. Moreover, the MIC in assay [1] was determined as 0.195 µg/mL (≈ 0.401 µM); with Histoplasma capsulatum, 0.39 µg/mL (≈ 0.801 µM).

As for `CC[C@H]1O[C@@H](/C(C)=C/[C@H](C)/C=C/[C@H]2[C@@H](C)[C@@H]2/C=C/[C@@H]2O[C@H](CCO)C[C@H](O)[C@H]2O)CC=C1C`, the outcome in the assay with Candida albicans and in the assay on Streptococcus pyogenes was inactive. In addition, the MIC (in assay [1]; with Histoplasma capsulatum) was 0.098 µg/mL (≈ 0.213 µM) each time.

Take `CC[C@H]1O[C@@H](/C(C)=C/[C@H](C)/C=C/[C@H]2[C@@H](C)[C@@H]2/C=C/[C@@H]2O[C@H](CC(=O)c3ccccc3)C[C@H](O)[C@H]2O)CC=C1C`: the outcome in the assay with Candida albicans and in the assay on Streptococcus pyogenes was inactive. The MIC came out at 25 µg/mL (≈ 46.8 µM) in assay [1] and 6.25 µg/mL (≈ 11.7 µM) in the assay with Histoplasma capsulatum.

`CC[C@H]1O[C@@H](/C(C)=C/[C@H](C)/C=C/[C@H]2[C@@H](C)[C@@H]2/C=C/[C@@H]2O[C@H](CC(O)(c3ccccc3)c3ccccc3)C[C@H](O)[C@H]2O)CC=C1C`: the result in the assay on Candida albicans and with Streptococcus pyogenes was inactive. Moreover, the MIC in assay [1] was greater than 50 µg/mL; in the assay on Histoplasma capsulatum, 50 µg/mL (≈ 81.6 µM).

Regarding `CC[C@H]1O[C@@H](/C(C)=C/[C@H](C)/C=C/[C@H]2[C@@H](C)[C@@H]2/C=C/[C@@H]2O[C@H](CC(C)(C)O)C[C@H](O)[C@H]2O)CC=C1C`, the result in the assay on Candida albicans and with Streptococcus pyogenes was inactive. Further, the figures for the MIC (in assay [1]; in the assay on Histoplasma capsulatum) were 0.195 µg/mL (≈ 0.399 µM) and 0.78 µg/mL (≈ 1.6 µM), respectively.

On to `CC[C@H]1O[C@@H](/C(C)=C/[C@H](C)/C=C/[C@H]2[C@@H](C)[C@@H]2/C=C/[C@@H]2O[C@H](CC(=O)O)C/C(=N/O)[C@H]2O)CC=C1C`, for which the outcome with Candida albicans and with Streptococcus pyogenes was inactive. In addition, the figures for the MIC (in assay [1]; in the assay with Histoplasma capsulatum) were 1.56 µg/mL (≈ 3.2 µM) and 3.12 µg/mL (≈ 6.4 µM), respectively.

For the molecule `CC[C@H]1O[C@@H](/C(C)=C/[C@H](C)/C=C/[C@H]2[C@@H](C)[C@@H]2/C=C/[C@@H]2O[C@H](CC(=O)OC)C[C@H](O)[C@H]2O)CC=C1C`, the outcome in the assay with Candida albicans and with Streptococcus pyogenes was inactive. In addition, the MIC (in assay [1]; in the assay on Histoplasma capsulatum) was 0.39 µg/mL (≈ 0.798 µM) each time.

Regarding `CC[C@H]1O[C@@H](/C(C)=C/[C@H](C)/C=C/[C@H]2[C@@H](C)[C@@H]2/C=C/[C@@H]2O[C@H](CC(C)=O)C[C@H](O)[C@H]2O)CC=C1C`, the outcome with Candida albicans and in the assay with Streptococcus pyogenes was inactive. Further, the MIC in assay [1] is 0.195 µg/mL (≈ 0.413 µM); in the assay with Histoplasma capsulatum, 0.39 µg/mL (≈ 0.825 µM).

`CCC(=O)C[C@@H]1C[C@H](O)[C@@H](O)[C@H](/C=C/[C@H]2[C@H](C)[C@@H]2/C=C/[C@@H](C)/C=C(\C)[C@H]2CC=C(C)[C@@H](CC)O2)O1`: the outcome in the assay with Candida albicans and with Streptococcus pyogenes was inactive. Further, the MIC (in assay [1]; with Histoplasma capsulatum) was 0.78 µg/mL (≈ 1.6 µM) in each case.

In the case of `CC[C@H]1O[C@@H](/C(C)=C/[C@H](C)/C=C/[C@H]2[C@@H](C)[C@@H]2/C=C/[C@@H]2O[C@H](CCO)C[C@@H](O)[C@H]2O)CC=C1C`, the outcome in the assay with Candida albicans and in the assay with Streptococcus pyogenes was inactive. The MIC (in assay [1]; in the assay on Histoplasma capsulatum) was 0.39 µg/mL (≈ 0.847 µM) throughout.

With `CC[C@H]1O[C@@H](/C(C)=C/[C@H](C)/C=C/[C@H]2[C@@H](C)[C@@H]2/C=C/[C@@H]2O[C@H](CC(C)O)C[C@H](O)[C@H]2O)CC=C1C` (stereo partly specified), the outcome in the assay on Candida albicans and with Streptococcus pyogenes was inactive. For the same molecule, the results for the MIC (in assay [1]; in the assay on Histoplasma capsulatum) were 0.195 µg/mL (≈ 0.411 µM) and 0.098 µg/mL (≈ 0.206 µM), respectively.

On to `CC[C@H]1O[C@@H](/C(C)=C/[C@H](C)/C=C/[C@H]2[C@@H](C)[C@@H]2/C=C/[C@@H]2O[C@H](CC(O)(C(C)C)C(C)C)C[C@H](O)[C@H]2O)CC=C1C`, for which the result in the assay with Candida albicans and with Streptococcus pyogenes was inactive. For the same molecule, the MIC in assay [1] was greater than 50 µg/mL; in the assay with Histoplasma capsulatum, 50 µg/mL (≈ 91.8 µM).

Regarding `CC[C@H]1O[C@@H](/C(C)=C/[C@H](C)/C=C/[C@H]2[C@@H](C)[C@@H]2/C=C/[C@@H]2O[C@H](CCOC(C)=O)C[C@H](OC(C)=O)[C@H]2OC(C)=O)CC=C1C`, the outcome in the assay with Candida albicans and with Streptococcus pyogenes was inactive. Besides, the MIC in assay [1] is greater than 50 µg/mL; with Histoplasma capsulatum it was 50 µg/mL (≈ 85.2 µM).

Consider `CC[C@H]1O[C@@H](/C(C)=C/[C@H](C)/C=C/[C@H]2[C@@H](C)[C@@H]2/C=C/[C@@H]2O[C@H](CC=O)C[C@H](O)[C@H]2O)CC=C1C`, for which the outcome in the assay with Candida albicans and in the assay on Streptococcus pyogenes was inactive. For the same molecule, the MIC is 0.098 µg/mL (≈ 0.214 µM) in assay [1] and 0.78 µg/mL (≈ 1.7 µM) with Histoplasma capsulatum.
